Here are results for twelve compounds from patent publication US6613942B1 (Novo Nordisk A/S, priority 1997, dated 2003).

What is called melting point is the temperature of the solid-liquid transition.

Chain of rat liver receptor (P30082 27-485): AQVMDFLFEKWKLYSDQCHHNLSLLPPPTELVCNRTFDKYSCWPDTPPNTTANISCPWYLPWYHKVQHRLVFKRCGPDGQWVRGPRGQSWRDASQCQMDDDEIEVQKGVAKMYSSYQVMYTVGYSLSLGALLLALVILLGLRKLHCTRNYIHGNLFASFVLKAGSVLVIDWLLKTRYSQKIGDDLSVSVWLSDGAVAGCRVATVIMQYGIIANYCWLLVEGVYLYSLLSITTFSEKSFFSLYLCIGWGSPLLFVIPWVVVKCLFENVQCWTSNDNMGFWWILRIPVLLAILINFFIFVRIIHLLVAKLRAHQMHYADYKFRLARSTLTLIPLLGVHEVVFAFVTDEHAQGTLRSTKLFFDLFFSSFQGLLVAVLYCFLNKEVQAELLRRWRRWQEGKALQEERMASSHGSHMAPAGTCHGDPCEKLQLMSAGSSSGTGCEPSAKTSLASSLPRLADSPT

The first series has as its target rat liver receptor (Rattus norvegicus, UniProt P30082). The conditions noted are these: literature, Bioorganic and Medicinal Chemistry Letters 2(9):915-918; cited from earlier work.
Consider `CN(C)CCCN(C)c1nc2cc(Cl)c(Cl)cc2nc1C=Cc1ccccc1` [(2-styryl-3-[3-(dimethylamino)propylmethyl-amino]-6,7-dichloroquinoxaline], for which the “displacement of glucagon from the rat liver receptor” value is on record as “displace glucagon from the rat liver receptor”.

Test system in a further series: not given
Conditions: not given
`CCN(CC)CCN(CCOc1ccc(/C=N/NC(=O)c2ccc(O)c(Cl)c2)c2ccccc12)Cc1ccc(OC(F)(F)F)cc1` [Example 143, 3-Chloro-4-hydroxybenzoic Acid {4-[2-[N′-(2-N,N-Diethylaminoethyl)-N′-(4-trifluoromethoxy-benzylamino)]]ethoxy-1-naphthylmethylene}hydrazide] gave a melting point of 134 to 136 °C.
The same measure, in the same setting: the result for `COc1cc(OCCN2CCc3ccccc3C2)ccc1/C=N/NC(=O)c1ccc(O)c(N)c1` [Example 792, 3-Amino-4-hydroxybenzoic Acid {4-[2-(1,2,3,4-Tetrahydro-isoquinolin-2-yl)ethoxy]-2-methoxybenzylidene}hydrazide] reads 162 to 164 °C; that for `COc1cc(/C=N/NC(=O)c2ccc(O)c(N)c2)cc(OC)c1OCc1ccc(C(C)C)cc1` [Example 793, 3-Amino-4-hydroxybenzoic Acid [4-(4-Isopropylbenzyloxy)-3,5-dimethoxybenzylidene]-hydrazide], 174 to 175 °C; that for `COc1cc(OCC(=O)NC2CCN(Cc3ccccc3)C2)ccc1/C=N/NC(=O)c1ccc(O)c(N)c1` [Example 794, (R)-2-{4-[(3-Amino-4-hydroxybenzoyl)hydrazonomethyl]-3-methoxyphenoxy}-N-(1-benzylpyrrolidin-3-yl)acetamide], 157 to 160 °C.
Same read-out and setting: in the case of `Nc1cc(C(=O)N/N=C/c2ccc(OCC(=O)N[C@@H]3CCN(Cc4ccccc4)C3)c3ccccc23)ccc1O` [Example 795, (R)-2-{4-[(3-Amino-4-hydroxybenzoyl)hydrazonomethyl]naphthyl-1-yloxy}-N-(1-benzylpyrrolidin-3-yl)acetamide] it was 187 to 192 °C; in that of `Nc1cc(C(=O)N/N=C/c2ccc(OCC(=O)N[C@H]3CCN(Cc4ccccc4)C3)c3ccccc23)ccc1O` [Example 797, (S)-2-{4-[(3-Amino-4-hydroxybenzoyl)hydrazonomethyl]naphthyl-1-yloxy}-N-(1-benzylpyrrolidin-3-yl)acetamide], 192 to 193 °C; in that of `COc1cc(NC(=O)COc2ccc(OC(F)(F)F)cc2)ccc1/C=N/NC(=O)c1ccc(O)c(Cl)c1` [Example 804], 235 to 236.5 °C.
Consider `COc1cc(NC(=O)c2ccc3ccccc3n2)ccc1/C=N/NC(=O)c1ccc(O)c(Cl)c1` [Example 805, Quinoline-2-carboxylic Acid (4-[(3-Chloro-4-hydroxybenzoyl)hydrazonomethyl]-3-methoxyphenyl}amide], for which the melting point was in the range of 236 to 238 °C.
In the case of `COc1cc(/C=N/NC(=O)c2ccc(O)c(Cl)c2)ccc1NC(=O)COc1ccc(OC(F)(F)F)cc1` [Example 806, N-{4-[(3-Chloro-4-hydroxybenzoyl)hydrazonomethyl]-2-methoxyphenyl}-2-(4-trifluoromethoxyphenoy)acetamide], the melting point was in the range of 216 to 218 °C.
Compound `COc1cc(/C=N/NC(=O)c2ccc(O)c(Cl)c2)ccc1NC(=O)c1ccc2ccccc2n1` [Example 807, Quinoline-2-carboxylic Acid {4-[(3-Chloro-4-hydroxybenzoyl)hydrazonomethyl]-2-methoxyphenyl}amide] returned a melting point of 159 to 162 °C.
On to `COc1cc(NC(=O)COc2ccc(Cl)cc2)ccc1/C=N/NC(=O)c1ccc(O)c(Cl)c1` [Example 808, N-(4-[(3-Chloro-4-hydroxybenzoyl)hydrazonomethyl]-3-methoxyphenyl}-2-(4-chlorophenoxy)acetamide], for which the melting point was 216 to 218 °C.
